Measured values taken from ChEMBL document CHEMBL2074287, “Modulation of digoxin transport across Caco-2 cell monolayers by citrus fruit juices: lime, lemon, grapefruit, and pummelo” (Pharm Res, 2003).

Target: ATP-dependent translocase ABCB1 (Homo sapiens, UniProt P08183)
Test: TP_TRANSPORTER: transepithelial transport of digoxin (Digoxin: 30nM) in Caco-2 cells
Format: functional, cell-based

ATP-dependent translocase ABCB1, sequence (P08183 whole entry): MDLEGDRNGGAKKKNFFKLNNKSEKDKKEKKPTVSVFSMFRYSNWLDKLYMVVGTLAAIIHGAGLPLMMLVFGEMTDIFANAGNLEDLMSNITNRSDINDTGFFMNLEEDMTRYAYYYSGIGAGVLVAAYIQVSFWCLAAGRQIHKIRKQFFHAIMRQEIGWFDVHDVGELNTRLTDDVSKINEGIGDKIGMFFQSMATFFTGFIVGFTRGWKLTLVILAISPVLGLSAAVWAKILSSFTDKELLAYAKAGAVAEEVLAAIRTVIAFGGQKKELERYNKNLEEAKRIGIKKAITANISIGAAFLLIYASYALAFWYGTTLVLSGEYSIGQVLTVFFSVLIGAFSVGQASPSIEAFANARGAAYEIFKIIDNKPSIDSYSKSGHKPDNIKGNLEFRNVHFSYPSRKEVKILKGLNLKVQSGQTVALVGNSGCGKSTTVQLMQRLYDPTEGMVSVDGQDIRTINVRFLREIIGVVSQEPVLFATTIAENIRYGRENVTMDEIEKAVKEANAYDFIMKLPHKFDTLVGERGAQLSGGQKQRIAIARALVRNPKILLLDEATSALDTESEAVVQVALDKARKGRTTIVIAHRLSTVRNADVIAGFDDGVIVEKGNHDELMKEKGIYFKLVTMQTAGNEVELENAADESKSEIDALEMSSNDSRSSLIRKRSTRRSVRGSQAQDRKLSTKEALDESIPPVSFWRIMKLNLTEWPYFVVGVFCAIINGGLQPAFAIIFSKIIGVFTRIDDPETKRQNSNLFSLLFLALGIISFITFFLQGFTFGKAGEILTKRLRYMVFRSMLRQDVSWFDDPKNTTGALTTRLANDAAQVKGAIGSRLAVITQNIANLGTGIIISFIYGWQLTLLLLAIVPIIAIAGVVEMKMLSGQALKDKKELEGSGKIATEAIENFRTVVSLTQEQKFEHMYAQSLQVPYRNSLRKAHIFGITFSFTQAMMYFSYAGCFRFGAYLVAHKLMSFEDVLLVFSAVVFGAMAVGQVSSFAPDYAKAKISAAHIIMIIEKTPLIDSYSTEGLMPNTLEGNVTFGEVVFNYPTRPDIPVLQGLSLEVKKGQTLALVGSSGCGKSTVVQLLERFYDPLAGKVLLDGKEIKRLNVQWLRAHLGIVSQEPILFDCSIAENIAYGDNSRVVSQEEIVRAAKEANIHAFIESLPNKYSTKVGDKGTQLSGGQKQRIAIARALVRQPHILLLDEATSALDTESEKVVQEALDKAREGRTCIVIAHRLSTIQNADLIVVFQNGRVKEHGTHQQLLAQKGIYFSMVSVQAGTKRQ

| Activity | Substance |
| --- | --- |
| inhibitor [+] | GRAPEFRUIT JUICE |
| inhibitor [+] | PUMMELO JUICE |
